# Test results reported in article PMC9604400, “Synthesis, Anticancer and Antitubercular Properties of New Chalcones and Their Nitrogen-Containing Five-Membered Heterocyclic Hybrids Bearing Sulfonamide Moiety” (International Journal of Molecular Sciences, 2022).
# pIC50: −log10 of the molar value.
# Experiments:
# EKVX = test: NCI-60 screen (SRB), non-small cell lung cancer; settings: Homo sapiens
# HCT-15 = test: NCI-60 screen (SRB), colon cancer; settings: Homo sapiens
# T-47D = test: NCI-60 screen (SRB), breast cancer; settings: Homo sapiens, T47D
# CAKI-1 = test: NCI-60 screen (SRB), renal cancer; settings: Homo sapiens
# SF-295 = test: NCI-60 screen (SRB), CNS cancer; settings: Homo sapiens
# UACC-62 = test: NCI-60 screen (SRB), melanoma; settings: Homo sapiens
# MDA-MB-231/ATCC = test: NCI-60 screen (SRB), breast cancer; settings: Homo sapiens
# A549/ATCC = test: NCI-60 screen (SRB), non-small cell lung cancer; settings: Homo sapiens
# [1] = tested on: 60 human cancer cell lines; test: NCI-60 screen (SRB), whole panel; assay type: cell-based; settings: Homo sapiens
# HS 578T = test: NCI-60 screen (SRB), breast cancer; settings: Homo sapiens, Hs-578T
# HCC-2998 = test: NCI-60 screen (SRB), colon cancer; settings: Homo sapiens
# IGROV1 = test: NCI-60 screen (SRB), ovarian cancer; settings: Homo sapiens
# PC-3 = test: NCI-60 screen (SRB), prostate cancer; settings: Homo sapiens
# CCRF-CEM = test: NCI-60 screen (SRB), leukemia; settings: Homo sapiens
# 786-0 = test: NCI-60 screen (SRB), renal cancer; settings: Homo sapiens
# RPMI-8226 = test: NCI-60 screen (SRB), leukemia; settings: Homo sapiens
# OVCAR-3 = test: NCI-60 screen (SRB), ovarian cancer; settings: Homo sapiens
# K-562 = test: NCI-60 screen (SRB), leukemia; settings: Homo sapiens
# MDA-MB-435 = test: NCI-60 screen (SRB), melanoma; settings: Homo sapiens
# MALME-3M = test: NCI-60 screen (SRB), melanoma; settings: Homo sapiens
# OVCAR-4 = test: NCI-60 screen (SRB), ovarian cancer; settings: Homo sapiens
# SNB-19 = test: NCI-60 screen (SRB), CNS cancer; settings: Homo sapiens
# SR = test: NCI-60 screen (SRB), leukemia; settings: Homo sapiens
# HL-60(TB) = test: cells; settings: Homo sapiens
# leukemia cell lines = test: NCI-60 screen (SRB), leukemia panel; assay type: cell-based; settings: Homo sapiens; leukemia panel, single dose 10 μM; read-out: GI (growth inhibition), range over panel
# COLO 205 = test: NCI-60 screen (SRB), colon cancer; settings: Homo sapiens
# HT29 = test: NCI-60 screen (SRB), colon cancer; settings: Homo sapiens
# SF-539 = test: NCI-60 screen (SRB), CNS cancer; settings: Homo sapiens
# breast cancer cell lines = test: NCI-60 screen (SRB), breast cancer panel; assay type: cell-based; settings: Homo sapiens, single dose 10 μM, read-out: GI (growth inhibition), range over panel
# DU-145 = test: NCI-60 screen (SRB), prostate cancer; settings: Homo sapiens
# SW-620 = test: NCI-60 screen (SRB), colon cancer; settings: Homo sapiens
# NCI-H226 = test: NCI-60 screen (SRB), non-small cell lung cancer; settings: Homo sapiens
# MOLT-4 = test: NCI-60 screen (SRB), leukemia; settings: Homo sapiens
compound,measurement,setting,value
"COc1cc(OC)c(S(N)(=O)=O)cc1C(=O)/C=C/c1ccc(C)cc1 [Compound 17c, (E)-2,4-Dimethoxy-5-(3-(p-tolyl)acryloyl)benzenesulfonamide]",pIC50,EKVX,5.36
same,CC50,EKVX; read-out: LC50,43.3 µM
same,pIC50,HCT-15; HCT-15,5.59
same,CC50,"HCT-15; HCT-15, read-out: LC50",74.8 µM
same,pIC50,T-47D,5.63
same,CC50,T-47D; read-out: LC50,44.8 µM
same,pIC50,CAKI-1; CAKI-1,5.62
same,CC50,"CAKI-1; CAKI-1, read-out: LC50",35.2 µM
same,pIC50,SF-295; SF-295,5.41
same,CC50,"SF-295; SF-295, read-out: LC50",43.2 µM
same,pIC50,UACC-62; UACC-62,5.44
same,CC50,"UACC-62; UACC-62, read-out: LC50",46.2 µM
same,pIC50,MDA-MB-231/ATCC; MDA-MB-231,5.47
same,CC50,"MDA-MB-231/ATCC; MDA-MB-231, read-out: LC50",60 µM
same,pIC50,A549/ATCC; A549,5.56
same,CC50,"A549/ATCC; A549, read-out: LC50",34.8 µM
same,pIC50,"[1]; five-dose screen, read-out: IC50 values against most cell lines (range)",4.94 to 6.27
same,inhibition at 10 µM,"[1]; single dose 10 μM, mean over 60 cell lines, over 100% = cell death, read-out: Mean growth inhibition (GI) percentage",81.2%
same,pIC50,HS 578T,5.46
same,CC50,HS 578T; read-out: LC50,> 100 µM
same,pIC50,HCC-2998; HCC 2998,5.62
same,CC50,"HCC-2998; HCC 2998, read-out: LC50",22.3 µM
same,pIC50,IGROV1; IGROV-1,5.45
same,CC50,"IGROV1; IGROV-1, read-out: LC50",72.4 µM
same,pIC50,PC-3; PC-3,5.47
same,CC50,"PC-3; PC-3, read-out: LC50",55.1 µM
same,pIC50,CCRF-CEM,5.40
same,CC50,CCRF-CEM; read-out: LC50,> 100 µM
same,pIC50,786-0; 786-0,5.41
same,CC50,"786-0; 786-0, read-out: LC50",> 100 µM
same,pIC50,RPMI-8226; RPMI-8226,5.49
same,CC50,"RPMI-8226; RPMI-8226, read-out: LC50",> 100 µM
same,pIC50,OVCAR-3; OVCAR-3,5.52
same,CC50,"OVCAR-3; OVCAR-3, read-out: LC50",> 100 µM
same,pIC50,K-562; K562,5.61
same,CC50,"K-562; K562, read-out: LC50",> 100 µM
same,pIC50,MDA-MB-435; MDA-MB-435,5.64
same,CC50,"MDA-MB-435; MDA-MB-435, read-out: LC50",25.4 µM
same,pIC50,MALME-3M,5.07
same,CC50,MALME-3M; read-out: LC50,59.5 µM
same,pIC50,OVCAR-4; OVCAR-4,5.44
same,CC50,"OVCAR-4; OVCAR-4, read-out: LC50",53.2 µM
same,pIC50,SNB-19; SNB-19,5.44
same,CC50,"SNB-19; SNB-19, read-out: LC50",45.3 µM
same,pIC50,SR,5.65
same,CC50,SR; read-out: LC50,> 100 µM
same,pIC50,HL-60(TB); HL-60,5.60
same,CC50,"HL-60(TB); HL-60, read-out: LC50",> 100 µM
same,inhibition at 10 µM,leukemia cell lines,78.9 to 94.3%
same,pIC50,COLO 205; COLO 205,5.48
same,CC50,"COLO 205; COLO 205, read-out: LC50",41.7 µM
same,pIC50,HT29; HT-29,5.46
same,CC50,"HT29; HT-29, read-out: LC50",64.7 µM
same,pIC50,SF-539; SF-539,5.66
same,CC50,"SF-539; SF-539, read-out: LC50",14.4 µM
same,inhibition at 10 µM,breast cancer cell lines,78.7 to 100%
same,pIC50,DU-145; DU-145,5.37
same,CC50,"DU-145; DU-145, read-out: LC50",65.1 µM
same,pIC50,SW-620; SW-620,5.46
same,CC50,"SW-620; SW-620, read-out: LC50",75.8 µM
same,pIC50,NCI-H226; NCI-H226,5.38
same,CC50,"NCI-H226; NCI-H226, read-out: LC50",90.8 µM
same,pIC50,MOLT-4; MOLT-4,5.51
same,CC50,"MOLT-4; MOLT-4, read-out: LC50",> 100 µM
